In brackets after ≈: the same amount, converted by molar mass.
Settings: buffer; pH 7.4; 200.0 µM
`COc1ccc(CC(=O)N2CCN=C2SC)cc1OC` gave a solubility kinetic of over 44.2 µg/mL.
In the case of `O=C(O)C1CC(c2ccccc2)=Nc2ccccc2S1` (stereo not given), the solubility kinetic is reported as 9.8 µg/mL (≈ 34.6 µM).
`CCc1ccc(S(=O)(=O)Nc2ccc(Cl)cn2)cc1` gave a solubility kinetic of 8.3 µg/mL (≈ 28 µM).
`CC(=O)c1c(C)[nH]c(C(=O)N2CC(C)CC(C)C2)c1C` (stereo not given) gave a solubility kinetic of over 41.5 µg/mL.
`O=C(CN1c2cccc3cccc(c23)S1(=O)=O)Nc1ccccc1Br` showed a solubility kinetic of 4.4 µg/mL (≈ 10.5 µM).
Work on `O=C(NC1CCNCC1)C1CCCCC1` yielded a solubility kinetic of over 31.5 µg/mL.
With `N=c1oc2ccc3ccccc3c2cc1C(N)=S` the solubility kinetic was 7.2 µg/mL (≈ 28.3 µM).
`Cc1ccc(S(=O)(=O)NC(Cc2ccccc2)C(=O)O)cc1` (stereo not given) gave a solubility kinetic of over 47.9 µg/mL.
`CCN(CC(=O)NCc1ccco1)S(=O)(=O)c1ccc(OC)cc1` showed a solubility kinetic of over 52.9 µg/mL.
With `COCCNc1oc(/C=C/c2ccccc2)nc1C#N` the solubility kinetic was over 40.4 µg/mL.
With `O=C(NC1CCCCC1)c1cc([N+](=O)[O-])ccc1N1CCCC1` the solubility kinetic was 3.3 µg/mL (≈ 10.4 µM).
In the case of `COc1ccc(OC)c(N/C(C)=C/C(=O)c2ccncc2)c1`, the solubility kinetic is reported as 36.9 µg/mL (≈ 124 µM).
For `Cc1ccc(NC(=O)Nc2ccc(Cl)c(Cl)c2)nc1`, the solubility kinetic was under 0.2 µg/mL.
Work on `Cc1ccc2nc(SCC(=O)NCc3cccs3)[nH]c2c1` yielded a solubility kinetic of over 47.6 µg/mL.
Work on `CCCc1cc(=O)oc2c(CN(CC)CC)c(O)c(Cl)cc12` yielded a solubility kinetic of over 48.6 µg/mL.
With `Cc1ccsc1C(=O)NCc1ccc(F)cc1` the solubility kinetic was over 37.4 µg/mL.
In the case of `O=S(=O)(c1ccc(Br)c2ccccc12)N1CCOCC1`, the solubility kinetic is reported as 17.4 µg/mL (≈ 48.8 µM).
In the case of `Cc1ccc(CN2C(=O)C(C)Oc3ccccc32)cc1` (stereo not given), the solubility kinetic is reported as 4.7 µg/mL (≈ 17.6 µM).
`Cc1ccccc1CN1CCN(C(=O)CC(C)C)CC1` showed a solubility kinetic of 27 µg/mL (≈ 98.4 µM).
Work on `O=c1oc2cc(Br)ccc2n1Cc1ccccc1` yielded a solubility kinetic of under 0.7 µg/mL.
In the case of `COc1ccc(C(=O)NCCc2cn3ccccc3n2)cc1`, the solubility kinetic is reported as 42.9 µg/mL (≈ 145 µM).
`Cc1cc(OC(F)F)ccc1NC(=O)Nc1ccc2c(c1)OCO2` gave a solubility kinetic of under 0.4 µg/mL.
`COc1ccc(C(=O)N[C@H](C(=O)NCc2ccc(C)cc2)C(C)C)cc1` gave a solubility kinetic of 1.1 µg/mL (≈ 3.1 µM).
With `CCOC(=O)C1CCN(C(=O)Nc2cc(Cl)cc(Cl)c2)CC1` the solubility kinetic was 20.4 µg/mL (≈ 59.1 µM).
For `COCCCNc1nc2nonc2nc1NCCSC`, the solubility kinetic was 37.1 µg/mL (≈ 124 µM).
With `O=C(COC(=O)c1cnc(Cl)c(Cl)c1)NC1CC1` the solubility kinetic was over 43.4 µg/mL.
Compound `CC1(C)CC2CC(C)(CN2C(=O)COC(=O)c2ccc(NC(=O)CC#N)cc2)C1` (stereo not given) has a solubility kinetic of 7.6 µg/mL (≈ 19.1 µM).
In the case of `Cc1ccccc1NC(=O)NC1CCS(=O)(=O)C1` (stereo not given), the solubility kinetic is reported as over 40.2 µg/mL.
`CCN(C(=O)c1cccs1)C1CCS(=O)(=O)C1` (stereo not given) gave a solubility kinetic of over 41 µg/mL.
Work on `CN(CCc1ccccn1)C(=O)Nc1cccc(Cl)c1` yielded a solubility kinetic of 38.6 µg/mL (≈ 133 µM).
Work on `CC(=O)Nc1cccc(NC(=O)C2C3C=CC(C3)C2C(=O)O)c1` (stereo not given) yielded a solubility kinetic of over 47.2 µg/mL.
`CCCCn1c(N2CCCC2)nc2c1c(=O)[nH]c(=O)n2C` showed a solubility kinetic of over 43.7 µg/mL.
In the case of `COc1cc(C)c(S(=O)(=O)NOCc2ccccc2)c(C)c1C`, the solubility kinetic is reported as 5.5 µg/mL (≈ 16.4 µM).
Compound `COc1ccc2oc(=O)cc(CN3CCOCC3)c2c1` has a solubility kinetic of 39.5 µg/mL (≈ 143 µM).
Work on `CCOC(=O)Cn1c2ccccc2c2nc(C)sc21` yielded a solubility kinetic of over 41.2 µg/mL.
For `Cc1ccc(Cl)cc1NC(=O)Cn1c(C)csc1=O`, the solubility kinetic was 16.4 µg/mL (≈ 55.3 µM).
For `CC1CN(c2ccc([N+](=O)[O-])nc2)CC(C)O1` (stereo not given), the solubility kinetic was over 35.6 µg/mL.
With `CC(=O)c1ccc(O)c(CSc2nncn2C)c1` the solubility kinetic was over 39.5 µg/mL.
In the case of `Cl.O=[N+]([O-])c1ccccc1OCCCN1CCc2ccccc2C1`, the solubility kinetic is reported as over 52.3 µg/mL.
In the case of `NC(=O)c1c(NC(=O)c2ccccc2)sc2c1CCCC2`, the solubility kinetic is reported as 0.8 µg/mL (≈ 2.66 µM).
`CC1=C/C(=N\OS(=O)(=O)c2ccccc2)C(C)=CC1=O` showed a solubility kinetic of 6.4 µg/mL (≈ 22 µM).
`O=C1CCc2cc(S(=O)(=O)Nc3ccccc3)cc3c2N1CC3` showed a solubility kinetic of over 49.3 µg/mL.
For `Cc1cc(NC(=O)CSc2nccn2-c2ccc([N+](=O)[O-])cc2)no1`, the solubility kinetic was 33.8 µg/mL (≈ 94.1 µM).
With `Clc1cccc(CNCC2CCCO2)c1Cl` (stereo not given) the solubility kinetic was 33.3 µg/mL (≈ 128 µM).
Compound `CC1CCN(S(=O)(=O)c2ccc([N+](=O)[O-])cc2)CC1` has a solubility kinetic of 3.2 µg/mL (≈ 11.3 µM).
`Cc1ccc(CN2CCCN(C)CC2)c(C)c1` showed a solubility kinetic of 23.4 µg/mL (≈ 101 µM).
With `N#CCC(=O)Nc1ccc(C(=O)OCC(=O)NC2CCCc3ccccc32)cc1` (stereo not given) the solubility kinetic was 7.5 µg/mL (≈ 19.2 µM).
In the case of `C[C@H](NC(=O)N1CCn2c1nc1ccccc12)C(=O)NC1CC1`, the solubility kinetic is reported as over 47 µg/mL.
Compound `O=S(=O)(Nc1ccc(Cl)cc1)c1cccc2cccnc12` has a solubility kinetic of 5 µg/mL (≈ 15.7 µM).
Compound `Cc1cc(C(=O)OCC(=O)N2CCC(C)CC2)c2ccccc2n1` has a solubility kinetic of over 49 µg/mL.
Compound `Cc1cc(NC(=O)COc2ccc3ccccc3c2Br)no1` has a solubility kinetic of 14.4 µg/mL (≈ 39.9 µM).
With `O=C1CCC([N+](=O)[O-])C(c2ccc(C(F)(F)F)cc2)N1` (stereo not given) the solubility kinetic was over 43.2 µg/mL.
With `COc1ccc(NC(=O)N[C@@H](CCSC)C(=O)O)cc1OC` the solubility kinetic was over 49.3 µg/mL.
`O=C(c1ccc(Cl)c(S(=O)(=O)N2CCOCC2)c1)N1CCCCCC1` showed a solubility kinetic of 52.2 µg/mL (≈ 135 µM).
In the case of `Cc1cc(C(=O)N2CCCc3ccccc32)ccc1[N+](=O)[O-]`, the solubility kinetic is reported as 34.7 µg/mL (≈ 117 µM).
For `Cc1ccc(Nc2c(-c3ccc(N(C)C)cc3)nc3ncccn23)cc1`, the solubility kinetic was 1 µg/mL (≈ 2.91 µM).
With `CC(C)(C)C(=O)O/N=C(\N)c1c(Cl)cccc1Cl` the solubility kinetic was 30.9 µg/mL (≈ 107 µM).
Work on `O=C(Cc1ccccc1[N+](=O)[O-])OCC(=O)c1ccccc1Br` yielded a solubility kinetic of 39.1 µg/mL (≈ 103 µM).
`CCCCn1c(N)c(N(CC)C(=O)C2CCC2)c(=O)[nH]c1=O` gave a solubility kinetic of over 46.3 µg/mL.
`COc1ccc(CNCC(O)(c2ccccc2)c2ccccc2)cc1` showed a solubility kinetic of over 50 µg/mL.

— PubChem BioAssay AID1996
